≈ marks a conversion by molar mass, not a printed value. Read-outs that look alike come from different tables or passages of the source.
Experiments:
E. coli [1] = assay: Minimum inhibitory concentration, E. coli; format: cell-based; details: Escherichia coli
S. typhimurium = assay: Minimum inhibitory concentration, S. typhimurium; format: cell-based; details: Salmonella enterica
Klebsiella aeruginosa [2] = assay: Minimum inhibitory concentration, Klebsiella aeruginosa; format: cell-based
Proteus mirabilis [3] = assay: Minimum inhibitory concentration, Proteus mirabilis; format: cell-based
Proteus vulgaris [4] = assay: Minimum inhibitory concentration, Proteus vulgaris; format: cell-based
E. coli [5] = assay: Mice infected with E. coli, CD50 (Tables I, II, IV); format: in vivo; details: Escherichia coli
Experimental: (§1) Typical of the compounds of the class are very active antimicrobial agents, especially against gram-negative bacteria, in particular E. coli. For instance, the following values of the CD50 were determined on administering the listed compounds of formula I, in which R1 is as defined in the following Table I, Antimicrobial Activity, R2 and R3 are hydrogen and wherein R4 is sodium to mice infected with the bacteria shown.
(§2) CD50 = Dose in mg of compound/kg of mouse body weight which cures th
(§3) infection in 50% of the animals

Klebsiella aeruginosa [6] = assay: Mice infected with Klebsiella aeruginosa, CD50 (Table II); format: in vivo; details: read-out: DC50 (the source's name)
Excerpt: as §2, §3

Proteus vulgaris [7] = assay: Mice infected with Proteus vulgaris, CD50 (Table II); format: in vivo; details: read-out: DC50 (the source's name)
Excerpt: as §2, §3

Proteus mirabilis [8] = assay: Mice infected with Proteus mirabilis, CD50 (Table II); format: in vivo; details: read-out: DC50 (the source's name)
Excerpt: as §2, §3

Klebsiella pneumoniae = assay: Mice infected with Klebsiella pneumoniae, CD50; format: in vivo
Experimental: as §1, §2, §3
(§4) The compounds of the invention also show effectiveness against other gram-negative bacteria.

B. proteus = assay: Mice infected with B. proteus, CD50; format: in vivo; details: Mus musculus
Experimental: as §1, §2, §3, §4

[9] = po, Table I, mice infected with E. coli, p.o., R4 = sodium, read-out: CD50 (the source's name)
[10] = sc, Table I, mice infected with E. coli, s.c., R4 = sodium, read-out: CD50 (the source's name)
[11] = sc, Table II, infected mice, E. coli, s.c., read-out: DC50 (the source's name)

| Compound | MIC (E. coli [1]) | MIC (S. typhimurium) | MIC (Klebsiella aeruginosa [2]) | MIC (Proteus mirabilis [3]) | MIC (Proteus vulgaris [4]) | ED50 (E. coli [5]; [9]) | ED50 (E. coli [5]; [10]) | also measured |
| --- | --- | --- | --- | --- | --- | --- | --- | --- |
| Cc1ccc2c(c1)C=NN(S(=O)(=O)CC(C)C)B2O | 2 µg/mL (≈ 7.14 µM) | 8 µg/mL (≈ 28.6 µM) | 2 µg/mL (≈ 7.14 µM) | 8 µg/mL (≈ 28.6 µM) | 4 µg/mL (≈ 14.3 µM) |  |  |  |
| Nc1ccc(S(=O)(=O)N2N=Cc3ccccc3B2O)c(Cl)c1 [1-hydroxy-2(2'-chloro-4'-amino-phenylsulfonyl) benzo-2,3,1-diazaborine, reference compound] |  |  |  |  |  |  |  | ED50 (E. coli [5]; po, Table IV, comparative, E. coli, p.o., read-out: CD50 (the source's name)): 36 mg/kg; ED50 (E. coli [5]; sc, Table IV, comparative, E. coli, s.c., read-out: CD50 (the source's name)): 13.5 mg/kg |
| CC(C)CS(=O)(=O)N1N=Cc2ccccc2B1O [drawing 2] |  |  |  |  |  |  |  | ED50 (E. coli [5]; po, read-out: CD50): 8.85 mg/kg; ED50 (E. coli [5]; sc, read-out: CD50): 10.6 mg/kg |
| O=S(=O)(CCl)N1N=Cc2ccccc2B1O [Compound 7] |  |  |  |  |  | 12.4 mg/kg | 11.8 mg/kg |  |
| CC(Cl)S(=O)(=O)N1N=Cc2ccccc2B1O (stereo not shown) [Compound 8] |  |  |  |  |  | 17.7 mg/kg | 14.8 mg/kg |  |
| CC(C)S(=O)(=O)N1N=Cc2ccccc2B1O [Compound 3] |  |  |  |  |  | 12.5 mg/kg | 9.2 mg/kg |  |
| O=S(=O)(CCCCl)N1N=Cc2cc(F)ccc2B1O [CH2CH2CH2 Cl, F] | 16 µg/mL (≈ 52.5 µM) | 4 µg/mL (≈ 13.1 µM) | 8 µg/mL (≈ 26.3 µM) | 16 µg/mL (≈ 52.5 µM) | 8 µg/mL (≈ 26.3 µM) |  |  |  |
| CCCCCS(=O)(=O)N1N=Cc2ccccc2B1O [(CH2)4CH3, H] | 32 µg/mL (≈ 114 µM) | 16 µg/mL (≈ 57.1 µM) | 8 µg/mL (≈ 28.6 µM) | 32 µg/mL (≈ 114 µM) | 32 µg/mL (≈ 114 µM) |  |  |  |
| CCCS(=O)(=O)N1N=Cc2cc(F)ccc2B1O [Compound 11] | 4 µg/mL (≈ 14.8 µM) | 8 µg/mL (≈ 29.6 µM) | 8 µg/mL (≈ 29.6 µM) | 4 µg/mL (≈ 14.8 µM) | 4 µg/mL (≈ 14.8 µM) |  |  | ED50 (E. coli [5]; po, read-out: DC50): 6.95 mg/kg; ED50 (E. coli [5]; [11]): 5.65 mg/kg; ED50 (Klebsiella aeruginosa [6]; po): 5.65 mg/kg; ED50 (Klebsiella aeruginosa [6]; sc): 4.25 mg/kg; ED50 (Proteus vulgaris [7]; po): 13.9 mg/kg; ED50 (Proteus vulgaris [7]; sc): 7.45 mg/kg; ED50 (Proteus mirabilis [8]; po): 13.9 mg/kg; ED50 (Proteus mirabilis [8]; sc): 7.45 mg/kg |
| C=CCS(=O)(=O)N1N=Cc2ccccc2B1O [Compound 6] |  |  |  |  |  | 13.2 mg/kg | 13.2 mg/kg |  |
| CCCS(=O)(=O)N1N=Cc2cc(CC)ccc2B1O [CH2CH2CH3, C2 H5] | 4 µg/mL (≈ 14.3 µM) | 2 µg/mL (≈ 7.14 µM) | 1 µg/mL (≈ 3.57 µM) | 8 µg/mL (≈ 28.6 µM) | 2 µg/mL (≈ 7.14 µM) |  |  |  |
| CCS(=O)(=O)N1N=Cc2ccccc2B1O [Compound 1] |  |  |  |  |  | 11 mg/kg | 9.8 mg/kg |  |
| Cc1ccc2c(c1)C=NN(S(=O)(=O)CCCCl)B2O [Compound 10] | 2 µg/mL (≈ 6.65 µM) | 1 µg/mL (≈ 3.33 µM) | 1 µg/mL (≈ 3.33 µM) | 4 µg/mL (≈ 13.3 µM) | 4 µg/mL (≈ 13.3 µM) |  |  | ED50 (E. coli [5]; po, read-out: DC50): 9.8 mg/kg; ED50 (E. coli [5]; [11]): 8.8 mg/kg; ED50 (Klebsiella aeruginosa [6]; po): 9.15 mg/kg; ED50 (Klebsiella aeruginosa [6]; sc): 6.95 mg/kg; ED50 (Proteus vulgaris [7]; po): 8.6 mg/kg; ED50 (Proteus vulgaris [7]; sc): 8.4 mg/kg; ED50 (Proteus mirabilis [8]; po): 9.15 mg/kg; ED50 (Proteus mirabilis [8]; sc): 7.45 mg/kg |
| CCc1ccc2c(c1)C=NN(S(=O)(=O)CCCCl)B2O [CH2CH2CH2Cl, C2 H5] | 4 µg/mL (≈ 12.7 µM) | 2 µg/mL (≈ 6.36 µM) | 2 µg/mL (≈ 6.36 µM) | 2 µg/mL (≈ 6.36 µM) | 4 µg/mL (≈ 12.7 µM) |  |  |  |
| CCCS(=O)(=O)N1N=Cc2ccccc2B1O [Compound 2] | 4 µg/mL (≈ 15.9 µM) | 16 µg/mL (≈ 63.5 µM) | 8 µg/mL (≈ 31.7 µM) | 32 µg/mL (≈ 127 µM) | 32 µg/mL (≈ 127 µM) | 7 mg/kg | 6.7 mg/kg | ED50 (Klebsiella pneumoniae; po): 11.3 mg/kg; ED50 (Klebsiella pneumoniae; sc): 6.75 mg/kg; ED50 (B. proteus; per oral (p.o.)): 18.7 mg/kg; ED50 (B. proteus; sc, subcutaneous (s.c.)): 11.7 mg/kg |
| CCCCS(=O)(=O)N1N=Cc2ccccc2B1O [Compound 4] |  |  |  |  |  | 11.2 mg/kg | 5.85 mg/kg |  |
| O=S(=O)(CCCCl)N1N=Cc2ccccc2B1O [Compound 9] |  |  |  |  |  | 22.7 mg/kg | 21.8 mg/kg |  |
| CC(C)CS(=O)(=O)N1N=Cc2ccccc2B1O [drawing 4] | 8 µg/mL (≈ 30.1 µM) | 4 µg/mL (≈ 15 µM) | 4 µg/mL (≈ 15 µM) | 16 µg/mL (≈ 60.1 µM) | 16 µg/mL (≈ 60.1 µM) |  |  |  |

Reference: patent US4199573A, “Diazaborines and drug compositions” (Grunenthal GmbH, priority 1978, dated 1980)
